Columns and labels:
dopamine 1 receptor = settings: allosteric modulator binding preferentially to ICL2; cited from earlier work
Source text: Positive allosteric binding sites of GPCRs have been identified in the past. However, recent studies have […] the potential of positive allosteric modulators in multiple GPCRs using in vitro and in silico approaches. Allosteric binding sites located near the extracellular (EC) face and IC face in different GPCRs have been documented. Allosteric sites near the orthosteric site in GPCRs often block the entry of other ligands. However, this would not be a problem for allosteric ligands that target the IC region. DETQ, an al ...

[1] = biological target: T1, AngII type 1 receptor (AT1R) (Homo sapiens, UniProt P30556); assay: Saturation NanoBRET binding of BODIPY-AngII to Nluc-AT1R in live HEK293FT cells
T1 construct: host or cells: HEK293FT
T1 sequence (P30556 1-359): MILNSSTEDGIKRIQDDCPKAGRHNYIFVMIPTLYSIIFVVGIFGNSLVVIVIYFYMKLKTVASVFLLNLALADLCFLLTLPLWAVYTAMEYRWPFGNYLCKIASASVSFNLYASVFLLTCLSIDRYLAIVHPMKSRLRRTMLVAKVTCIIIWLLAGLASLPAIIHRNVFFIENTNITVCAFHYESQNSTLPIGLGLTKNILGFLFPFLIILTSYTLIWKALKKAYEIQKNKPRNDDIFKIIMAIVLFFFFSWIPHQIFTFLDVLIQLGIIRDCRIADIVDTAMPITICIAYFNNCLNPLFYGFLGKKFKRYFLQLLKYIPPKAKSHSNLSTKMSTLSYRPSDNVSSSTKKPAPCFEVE
Method: Figure 1 Saturation binding of BODIPY-angiotensin II (AngII) to AngII type 1 receptor (AT1R) using NanoBRET assay in live HEK293FT cells. HEK293FT cells transiently expressing Nluc-AT1R (NanoBRET donor) were first treated with 10 μM LVV-H7 or vehicle (A) or 1 μM olmesartan medoxomil or vehicle (B) for 20 min at 37 °C. […] Data are mean ± SEM of four (A) or three (B) independent experiments performed in duplicate.
(A) HEK293FT cells transiently expressing Nluc-AT1R (NanoBRET donor) were first treated with 1 μM olmesartan medoxomil or vehicle and then immediately treated with 0, 10, or 100 μM LVV-H7. […] Specific binding curves were generated by subtracting olmesartan medoxomil-treated wells from vehicle-treated wells for each concentration of LVV-H7.
(§1) The NanoLuc-AT1R coding plasmid (Promega, Madison, WI, USA) was used for its transient expression in HEK293FT cells as previously reported.
(§2) Human embryonic kidney (HEK) 293FT cells (Thermo Fisher Scientific) were cultured and maintained at 37 °C, 5% CO2 in complete medium (Dulbecco’s modified Eagle’s medium (DMEM) containing 0.3 mg/mL glutamine, 100 IU/mL penicillin, and 100 μg/mL streptomycin) supplemented with 10% fetal calf serum (FCS) (Bovogen Biologicals, Victoria, Australia) and 400 μg/mL Geneticin (Thermo Fisher Scientific). Transient transfections were carried out 24 h after seeding 600,000 cells/well of a 6-well plate. FuGENE 6 (Promega) transfection reagent was used according to the manufacturer’s instructions. Cells were harvested with 0.05% Trypsin-EDTA 24 h after transfection and seeded into poly-L-lysine (Sigma Aldrich) coated white 96-well plates (Greiner Bio-One, Frickenhausen, Germany) at 80,000 cells/well in phenol red-free DMEM containing 25 mM HEPES, 0.3 mg/mL glutamine, 100 IU/mL penicillin, and 100 μg/mL streptomycin supplemented with 5% FCS.
The NanoLuc substrate furimazine (Promega) was then added to a final concentration of 10 μM and light emission was measured at 37 °C using the filters 450 nm (80-nm bandpass) and >610 nm (longpass) on the LUMIstar or CLARIOstar multilabel plate reader (BMG Labtech (Australia), Mornington, VIC, Australia).
The NanoBRET ratios were determined by dividing the >610 nm (longpass) emission by 450 nm (80-nm bandpass) emission and subtracting the background ratio. Then, the percentage of NanoBRET signals were calculated as described in figure legends. The saturation and kinetic curves were fitted with the appropriate nonlinear regression equations using GraphPad Prism software (San Diego, CA, USA). Statistical analyses were performed with paired one-way ANOVA or paired t-tests as appropriate to determine statistical significance between the different conditions. **** p-value < 0.0001, *** p-value < 0.001, ** p-value < 0.01, * p-value < 0.05, and ns p-value > 0.05.

AT1R = settings: HEK293 cells; Gαq/inositol phosphate pathway and ERK1/2 phosphorylation; cited from earlier work
Source text: Hemorphins are endogenous hemoglobin-derived peptides implicated in numerous physiological and pathophysiological situations including spatial learning, inflammation, analgesia, and transient hypotension. The molecular targets of hemorphins comprise the cell-surface G protein-coupled receptor (GPCR) members such as the opioid receptors and also the membrane AngIV receptor [3, 8]. Moreover, hemorphins are also known for their inhibitory effects on the angiotensin-converting enzyme (ACE), a key enzyme in the renin–angiotensin system (RAS). ...

[2] = biological target: T1, AngII type 1 receptor (AT1R); assay: Real-time NanoBRET kinetics of BODIPY-AngII binding to Nluc-AT1R in live HEK293FT cells; settings: 10 μM LVV-H7, 30 min pre-incubation, 100 nM BODIPY-AngII
Method: as §1, §2
The NanoBRET ratios were determined by dividing the >610 nm (longpass) emission by 450 nm (80-nm bandpass) emission and subtracting the background ratio. Then, the percentage of NanoBRET signals were calculated as described in figure legends. […]

Compound: C[C@H]1c2cccc(C(C)(C)O)c2C[C@H](CO)N1C(=O)Cc1c(Cl)cccc1Cl [DETQ]
- effect on potency of dopamine (dopamine 1 receptor): significantly enhanced the potency of dopamine

Compound: CCCc1nc(C(C)(C)O)c(C(=O)OCc2oc(=O)oc2C)n1Cc1ccc(-c2ccccc2-c2nnn[nH]2)cc1 [olmesartan medoxomil, reference compound]
- displacement of BODIPY-AngII binding ([1]; 1 μM olmesartan medoxomil, 20 min at 37 °C before BODIPY-AngII 40 min, three independent experiments in duplicate): ~ 75%

Compound: LVVYPWTQRF [LVV-H7, LVV-hemorphin-7, decapeptide LVV-hemorphin-7 ([…]) (New England Peptide)]
- modulation of AT1R activity and downstream signaling (AT1R): positive modulation of its activity and downstream signaling pathways in HEK293 cells
- effect on maximal binding of BODIPY-AngII (kinetics) ([2]; n = 4, p < 0.05): significantly increased the maximal binding of BODIPY-AngII
- effect on binding rate (T1/2) of BODIPY-AngII ([2]; n = 4, p > 0.05): no effect on the binding rate
- competition for binding with BODIPY-AngII ([1]; 10 μM LVV-H7, 20 min at 37 °C before BODIPY-AngII 40 min, four independent experiments in duplicate): did not compete for binding with BODIPY-AngII
- effect on maximum binding (Bmax) of BODIPY-AngII ([1]; LVV-H7 0, 10, 100 μM, saturation binding, n = 6): without altering the maximum binding
- decrease of AngII's kD ([1]; NanoBRET in HEK293FT cells, effect of LVV-H7): 2.6 fold
- effect on binding of BODIPY-AngII ([1]; increasing LVV-H7 (0, 10, 100 μM), n = 6): significantly potentiated the binding of BODIPY-AngII
